Experiments:
[1] = target: T1, human norepinephrine transporter (hNET) (Homo sapiens, UniProt P23975); test: hNET scintillation proximity assay (SPA), competition with [3H]-Nisoxetine; assay type: binding; conditions: membranes of HEK-293 cells expressing recombinant hNET, Ki by Cheng-Prusoff
T1 construct: expressed in transfected cells; host or cells: HEK-293 (Clone: HEK-hNET #2)
Description: Screening for Compounds Active at Human Norepinephrine Transporter (HNET) Using a Scintillation Proximity Assay (SPA)
This assay was used to determine the affinity of ligands for the hNET transporter by competition with [^3H]-Nisoxetine. As in the hSERT assay of the above example, receptor-containing membranes were pre-coupled to the SPA beads and the binding of the appropriate radioligand to the transporter was measured. The light emission was proportional to the amount of bound radioligand, with unbound radioligand producing no signal. […]
Cell membranes were prepared using a membrane preparation buffer of 50 mM TRIS (pH 7.4). […] After a second centrifugation, the pellet was re-homogenized and brought to a final volume determined during the assay. […]
^3[H] […] The mixtures were allowed to stand at room temperature for one hour, and were then counted on a Packard TopCount LCS, a generic SPA counting protocol settings (Energy Range: Low, Efficiency Mode: Normal, Region A: 1.50-35.00, Region B: 1.50-256.00, Count Time (min.): 0.40, Background Subtract: none, Half-Life Correction: no, Quench Indicator: tSIS, Platemap blank subtraction: No, Cross talk reduction: Off).
(§1) The % inhibition was calculated for each compound tested [(Compound CPM at maximum concentration-Non-Specific CPM)/Total CPM*100]. […]

[2] = target: T2, human dopamine transporter (hDAT) (Homo sapiens, UniProt Q01959); test: hDAT scintillation proximity assay (SPA), competition with [3H]-Vanoxerine; assay type: binding; conditions: HEK-293 cells expressing recombinant hDAT, Ki by Cheng-Prusoff
T2 construct: expressed in transfected cells; host or cells: HEK-293
Description: Screening for Compounds Active at Human Dopamine Transporter Using a Scintillation Proximity Assay (SPA)
This assay was used to determine the affinity of ligands for the dopamine transporter by competition with [^3H]-Vanoxerine.
HEK-293 cells (Tatsumi et al., Eur. J. Pharmacol. 1997, 30, 249-258) stably expressing recombinant hDAT were maintained with media (DMEM hi glucose with 10% FBS, 300 μg/ml G418 and 2 mM L-Glutamine) and incubated at 37° C. with 5% CO2. Cells were plated four hours prior to experiment by placing approximately 30,000 cells per well (in PBS) on white, opaque Cell-Tak coated 96 well plates. Extra buffer was apriated from the cell plates using an ELx405 plate washer.
^3[H] vanoxerine (GBR 12909) radioligand, specific activity approximately 59 Ci/mmol, stock concentration, 400 nM, and 50 mM Tris-HCl, 300 mM NaCl, (pH 7.4) buffers were used for Scintillation Proximity Assay IC50/Ki determination. […]
as §1
[formula] where max=total binding, min=non specific binding, x=concentration (M) of the tested compound and n=Hill slope. The inhibition dissociation constant (Ki) of each compound was determined according to the method of Cheng-Prusoff and then converted into negative logarithm (pKi) of the Ki.

T2 sequence (Q01959 whole entry): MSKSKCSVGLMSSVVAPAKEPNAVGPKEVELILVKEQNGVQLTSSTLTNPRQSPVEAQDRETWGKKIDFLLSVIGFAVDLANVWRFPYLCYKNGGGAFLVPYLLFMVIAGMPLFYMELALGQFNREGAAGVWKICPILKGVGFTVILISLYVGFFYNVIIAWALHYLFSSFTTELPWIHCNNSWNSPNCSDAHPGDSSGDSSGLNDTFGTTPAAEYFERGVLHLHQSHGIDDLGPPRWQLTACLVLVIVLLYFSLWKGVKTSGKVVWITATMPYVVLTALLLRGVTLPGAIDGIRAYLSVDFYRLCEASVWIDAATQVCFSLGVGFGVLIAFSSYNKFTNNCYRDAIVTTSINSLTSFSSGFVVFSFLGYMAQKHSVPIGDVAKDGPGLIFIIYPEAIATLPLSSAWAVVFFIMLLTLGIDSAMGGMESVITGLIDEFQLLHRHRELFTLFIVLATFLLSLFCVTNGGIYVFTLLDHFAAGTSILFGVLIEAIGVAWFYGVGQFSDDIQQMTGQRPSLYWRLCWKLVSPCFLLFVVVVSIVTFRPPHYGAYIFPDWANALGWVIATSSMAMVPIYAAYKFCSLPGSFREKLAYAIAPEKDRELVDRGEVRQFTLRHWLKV
T1 sequence (P23975 whole entry): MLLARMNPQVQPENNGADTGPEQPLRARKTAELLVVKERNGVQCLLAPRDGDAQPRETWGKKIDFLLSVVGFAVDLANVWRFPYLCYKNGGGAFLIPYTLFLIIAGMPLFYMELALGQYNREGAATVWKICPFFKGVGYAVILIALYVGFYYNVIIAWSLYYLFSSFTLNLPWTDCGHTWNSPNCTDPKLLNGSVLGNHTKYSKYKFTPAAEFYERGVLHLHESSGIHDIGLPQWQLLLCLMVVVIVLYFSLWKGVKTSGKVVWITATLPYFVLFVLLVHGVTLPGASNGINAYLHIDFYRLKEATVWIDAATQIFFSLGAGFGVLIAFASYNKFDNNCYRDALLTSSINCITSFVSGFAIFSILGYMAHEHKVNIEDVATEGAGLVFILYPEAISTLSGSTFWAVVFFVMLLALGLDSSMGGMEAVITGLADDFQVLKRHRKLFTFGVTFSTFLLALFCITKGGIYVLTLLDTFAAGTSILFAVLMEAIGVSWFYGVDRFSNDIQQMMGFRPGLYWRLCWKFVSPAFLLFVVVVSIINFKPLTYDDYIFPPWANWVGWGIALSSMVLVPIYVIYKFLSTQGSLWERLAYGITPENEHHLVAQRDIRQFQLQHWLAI

Row | Ki [1] [nM] | SMILES | Ki [2] [nM]
1 | ~6.31 | c1ccc(OCC2CNCCN2c2ccc3[nH]ncc3c2)cc1 (centres unmarked) [5-(2-Phenoxymethyl-piperazin-1-yl)-1H-indazole] | 
2 |  | c1cc2[nH]ncc2cc1N1CCNC[C@H]1CCC1CC1 [5-[(R)-2-(2-Cyclopropyl-ethyl)-piperazin-1-yl]-1H-indazole] | ~12.6

Source: patent US7998963B2, “Arylpiperazine derivatives and uses thereof” (Roche Palo Alto LLC, priority 2008, dated 2011)
